Marks after values point to notes of the source that are not given here.
Key:
[1] = test system: WCR; conditions: in vivo; cited from earlier work
[2] = test system: D. u. howardi; experiment: Sticky trap attraction along hybrid corn, Pomology South Farms (Example 2); format: in vivo, Diabrotica undecimpunctata howardi; conditions: August 7; 100 mg per trap; n = 4
Description: (§1) The candidate lures in all experiments were purchased commercially and exceeded 98% purity. The test chemicals were applied by capillary micropipettes to cotton dental wicks which were attached to the tops of 1.0 liter cylindrical paper cartons covered with TangleTrap™ (Tanglefoot Co., Grand Rapids, Mich.). The sticky trap techniques used were as described in Example 1. Cinnamyl alcohol and para-methoxycinnamaldehyde, which are solids, were dissolved in glass-distilled acetone prior to dosing the cotton wicks. All treatments were applied at a dosage of 100 mg per trap. 1,2,4-trimethoxybenzene, indole, and trans-cinnamaldehyde were mixed in a ratio of 1:1:1, by weight, immediately prior to dosing the cotton wicks. Control traps had untreated cotton wicks. Four replicates of treated and untreated traps were randomly positioned 10 meters apart on top of 1 m high posts along the border of a eight foot wide strip cut through the middle of a 4.05 ha relict prairie at Trelease Woods (ca. two miles northeast of Urbana, Ill.). The field consisted primarily of Andropogon gerardii Vitman (big bluestem) and a variety of composites. The tests were conducted in mid-August of two years and were timed to coincide with the presence of D. cristata and D. barberi adults in the flower heads of Canada thistle (Carduus arvensis Robson). In the second year, several new attractants of D. v. virgifera and D. barberi were tested in Trelease Woods and along the edge of a 0.8 ha field of hybrid corn located at the Pomology South Farms, Urbana, Ill. Attraction of Diabrotica species to the various lures was measured by the mean number of beetles caught after 24-h. On one date in late August of the first year, D. cristata and D. barberi were removed from the traps and sexed in the laboratory. The significance of treatments in all tests was determined by an analysis of variance and the individual means were separated by Duncan's multiple range test (Statistical Package for Social Science, Nie, et al., SPSS: statistical package for the social sciences, 2nd ed. McGraw-Hill, New York (1975). Data were logarithmically transformed for statistical analysis and the means and standard deviations are presented for the untransformed data.

[3] = test system: southern corn rootworm (SCR) adults; experiment: Sticky trap attraction in corn, estragole analogues (Example 3); format: in vivo, Diabrotica undecimpunctata howardi; conditions: 100 mg per trap, n = 4
Summary of the method: (§2)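 Cotton wicks dosed with 100 mg or 100 μL attractant per trap on TangleTrap-coated cartons, four replicates 10 m apart on 1 m posts at field edges of hybrid or sweet corn. Mean beetles caught after ~24 h; log-transformed ANOVA with Duncan's test, P=0.05.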

[4] = test system: western corn rootworm (WCR) adults; experiment: as above; format: in vivo, Diabrotica virgifera virgifera; conditions: 100 mg per trap
Summary of the method: as §2

[5] = test system: D. v. virgifera; experiment: Sticky trap attraction in prairie habitat, Trelease Woods (Example 2); format: in vivo, Diabrotica virgifera virgifera; conditions: 100 mg per trap, n = 4
Summary of the method: (§3)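 Lure-dosed cotton wicks (solids in acetone; untreated controls) on TangleTrap-coated cartons atop 1 m posts, four replicates 10 m apart in relict prairie, mid-August over two years. Read-out: mean beetles caught after 24-h; log-transformed ANOVA with Duncan's multiple range test.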

[6] = test system: D. cristata; experiment: as above; format: in vivo, Diabrotica cristata; conditions: 100 mg per trap, n = 4
Summary of the method: as §3

[7] = test system: D. u. howardi; experiment: as above; format: in vivo, Diabrotica undecimpunctata howardi; conditions: 100 mg per trap, n = 4
Summary of the method: as §3

[8] = test system: D. barberi; experiment: Sticky trap attraction along hybrid corn, Pomology South Farms (Example 2); format: in vivo, Diabrotica barberi; conditions: August 7; 100 mg per trap; n = 4
Description: as §1

[9] = test system: northern corn rootworm (NCR) adults; experiment: Sticky trap attraction in corn, estragole analogues (Example 3); format: in vivo, Diabrotica barberi; conditions: August 7 (Table 11); 100 mg per trap; n = 4
Summary of the method: as §2

[10] = test system: D. v. virgifera; experiment: Sticky trap attraction along hybrid corn, Pomology South Farms (Example 2); format: in vivo, Diabrotica virgifera virgifera; conditions: August 7; 100 mg per trap; n = 4
Description: as §1

[11] = test system: western corn rootworm (WCR) adults; conditions: in vivo; cited from earlier work
[12] = test system: D. barberi; experiment: Sticky trap attraction in prairie habitat, Trelease Woods (Example 2); format: in vivo, Diabrotica barberi; conditions: 100 mg per trap, n = 4
Summary of the method: as §3

For C=CCc1ccc(OC)cc1 [I, 4-methoxy-1-allylbenzene], the “LR for WCR, most effective volatile attractants yet identified” value [1] is listed as 3 mg, the “Mean number of D. u. howardi per stick trap per day (±standard deviation) in corn” value [2] is listed as 7.0 ± 4.5^a per stick trap per day and the “Mean number of SCR adults per sticky trap (±standard deviation) after 24 hours” value ([3]; August 4 second year) is listed as 7.2 ± 5.1^a per sticky trap. For the same molecule, the “Mean number of SCR adults per sticky trap (±standard deviation) after 24 hours” value ([3]; August 5 first year) was 9.2 ± 5.6^a per sticky trap, the “Mean number of SCR (±standard deviation) per sticky trap after 24 hours” value ([3]; August 7 (Table 11)) was 7.0 ± 4.5^a per sticky trap and the “Mean number of WCR adults per sticky trap (±standard deviation) after 24 hours” value ([4]; August 4 second year, n = 4) was 84.5 ± 19.7^d per sticky trap. For the same molecule, the “Mean number of WCR adults per sticky trap (±standard deviation) after 24 hours” value ([4]; August 5 first year, n = 4) was 17.2 ± 7.8^c per sticky trap, the “Mean number of WCR (±standard deviation) per sticky trap after 24 hours” value ([4]; August 7 (Table 11), n = 4) was 64.0 ± 15.9^b per sticky trap and the “Relative percent activity as compared with the highest mean in the column (WCR)” value ([4]; August 29) was 100%. The “Mean number of WCR per sticky trap (±standard deviation) after 24 hours” value ([4]; August 29, n = 4) was 147.2 ± 46.5 per sticky trap, the “Relative percent activity as compared with the highest mean in the column (WCR)” value ([4]; July 30) was 100% and the “Mean number of WCR per sticky trap (±standard deviation) after 24 hours” value ([4]; July 30, n = 4) was 82.1 ± 8.6 per sticky trap. The “Mean number of D. v. virgifera per day (±standard deviation)” value ([5]; August 11, 1987) was 0.3 ± 0.5^a per day, the “Mean number of D. v. virgifera per day (±standard deviation)” value ([5]; August 14, 1987) was 0.3 ± 0.5^a per day and the “Mean number of D. v. virgifera per sticky trap per day (±standard deviation)” value ([5]; August 27, first year) was 0 per sticky trap per day. The “Mean number of D. cristata per day (±standard deviation)” value ([6]; August 11, 1987) was 13.5 ± 4.1^b per day, the “Mean number of D. cristata per day (±standard deviation)” value ([6]; August 14, 1987) was 13.0 ± 4.2^c per day and the “Mean number of D. cristata per sticky trap per day (±standard deviation)” value ([6]; August 27, first year) was 5.3 ± 1.0^b per sticky trap per day. For the same molecule, the “Mean number of D. u. howardi per day (±standard deviation)” value ([7]; August 11, 1987) was 0.3 ± 0.5^a per day, the “Mean number of D. u. howardi per day (±standard deviation)” value ([7]; August 14, 1987) was 0.5 ± 0.7^a per day and the “Mean number of D. u. howardi per sticky trap per day (±standard deviation)” value ([7]; August 27, first year) was 3.0 ± 2.8^a per sticky trap per day. The “Mean number of D. barberi per stick trap per day (±standard deviation) in corn” value [8] was 2.3 ± 2.1^ab per stick trap per day, the “Mean number of NCR (±standard deviation) per sticky trap after 24 hours” value [9] was 2.2 ± 2.1^ab per sticky trap and the “Mean number of D. v. virgifera per stick trap per day (±standard deviation) in corn” value [10] was 64.0 ± 15.9^b per stick trap per day. For the same molecule, the “LR values for WCR attraction (literature)” value [11] was “about 3 mg”, the “Mean number of D. barberi per day (±standard deviation)” value ([12]; August 11, 1987) was 1.0 ± 2.0^a per day and the “Mean number of D. barberi per day (±standard deviation)” value ([12]; August 14, 1987) was 4.0 ± 0.8^b per day. The “Mean number of D. barberi per sticky trap per day (±standard deviation)” value ([12]; August 27, first year) was 6.5 ± 3.7^b per sticky trap per day.
